Assay results from ChEMBL document CHEMBL1145190, “CoMFA and CoMSIA analyses of Pneumocystis carinii dihydrofolate reductase, Toxoplasma gondii dihydrofolate reductase, and rat liver dihydrofolate reductase” (J Med Chem, 2005).
“And” between values parts separate entries of the source, which are not always exact repeats. Identical values can stand only once.

Legend:
[1] = molecular target: T1, Bifunctional dihydrofolate reductase-thymidylate synthase (Toxoplasma gondii, UniProt Q07422); experiment: (§1) Inhibition of Toxoplasma gondii dihydrofolate reductase
T1 sequence (Q07422 whole entry): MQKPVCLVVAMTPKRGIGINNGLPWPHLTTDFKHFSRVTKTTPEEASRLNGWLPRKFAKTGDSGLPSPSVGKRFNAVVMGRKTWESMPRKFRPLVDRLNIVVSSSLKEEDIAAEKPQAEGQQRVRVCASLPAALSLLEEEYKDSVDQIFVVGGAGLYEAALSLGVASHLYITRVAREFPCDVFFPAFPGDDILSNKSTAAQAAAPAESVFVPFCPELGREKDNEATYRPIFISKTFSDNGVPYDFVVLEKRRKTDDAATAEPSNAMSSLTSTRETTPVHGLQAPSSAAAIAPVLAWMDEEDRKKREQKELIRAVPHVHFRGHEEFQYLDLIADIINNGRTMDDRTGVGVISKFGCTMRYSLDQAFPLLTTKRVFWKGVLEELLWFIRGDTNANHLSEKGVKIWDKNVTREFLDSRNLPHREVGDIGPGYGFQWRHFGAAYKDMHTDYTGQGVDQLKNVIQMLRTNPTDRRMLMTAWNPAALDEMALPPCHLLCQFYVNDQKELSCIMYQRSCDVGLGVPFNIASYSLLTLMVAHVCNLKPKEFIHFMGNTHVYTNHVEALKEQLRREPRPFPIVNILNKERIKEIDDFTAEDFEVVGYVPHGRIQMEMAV

Dihydrofolate reductase [2] = molecular target: T2, Dihydrofolate reductase (Pneumocystis carinii, UniProt P16184); experiment: (§2) Inhibition of Pneumocystis carinii dihydrofolate reductase
T2 sequence (P16184 whole entry): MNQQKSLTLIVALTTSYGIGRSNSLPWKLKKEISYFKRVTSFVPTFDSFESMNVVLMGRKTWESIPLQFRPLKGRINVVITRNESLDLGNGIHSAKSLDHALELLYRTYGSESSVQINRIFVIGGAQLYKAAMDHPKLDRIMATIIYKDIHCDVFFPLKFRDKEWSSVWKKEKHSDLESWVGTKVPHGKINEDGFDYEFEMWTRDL

Dihydrofolate reductase [3] = molecular target: T2, Dihydrofolate reductase; experiment: as §2; remark: listed apart in the source
[4] = molecular target: T1, Bifunctional dihydrofolate reductase-thymidylate synthase; experiment: as §1; remark: listed apart in the source
Dihydrofolate reductase [5] = molecular target: T3, Dihydrofolate reductase (Rattus norvegicus, UniProt Q920D2); experiment: (§3) Inhibition of rat liver dihydrofolate reductase
T3 sequence (Q920D2 whole entry): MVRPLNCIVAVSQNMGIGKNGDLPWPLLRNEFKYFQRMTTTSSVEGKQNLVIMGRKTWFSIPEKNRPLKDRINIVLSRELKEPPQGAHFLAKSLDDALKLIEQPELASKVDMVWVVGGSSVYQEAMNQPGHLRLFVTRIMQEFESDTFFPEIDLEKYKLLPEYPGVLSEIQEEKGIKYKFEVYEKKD

Dihydrofolate reductase [6] = molecular target: T3, Dihydrofolate reductase; experiment: as §3; remark: listed apart in the source

Row | Structure (SMILES) | IC50 [1] | IC50 (Dihydrofolate reductase [2]) | IC50 (Dihydrofolate reductase [3]) | IC50 [4] | IC50 (Dihydrofolate reductase [5]) | IC50 (Dihydrofolate reductase [6])
1 | CN(Cc1ccc2nc(N)nc(N)c2n1)c1ccccc1 | 0.00084 µM | 0.29 µM | 0.29 µM |  |  | 
2 | Nc1nc(N)c2nc(CNc3cc(Cl)ccc3Cl)ccc2n1 |  | 1.6 µM | 1.6 µM |  |  | 
3 | COc1cc(NNCc2cnc3nc(N)nc(N)c3c2C)c(-n2cccc2)cc1OC | 0.6 µM |  |  | 0.6 µM | 3.5 µM | 3.5 µM
4 | Cc1c(CN(C)c2ccccc2)cnc2nc(N)nc(N)c12 | 0.0063 µM | 0.03 µM | 0.03 µM | 0.0063 µM | 0.018 µM | 0.018 µM
5 | COc1ccc(N(C)Cc2ccc3nc(N)nc(N)c3n2)cc1OC |  | 0.091 µM | 0.091 µM |  | 0.27 µM | 
6 | COc1ccc(-c2ccccc2)cc1NNCc1cnc2nc(N)nc(N)c2c1C | 0.068 µM | 0.064 µM | 0.064 µM | 0.0681 µM | 0.44 µM | 0.44 µM
7 | Nc1nc(N)c2cc(NCc3cccc4ccccc34)ccc2n1 | 0.099 µM | 0.72 µM | 0.72 µM | 0.099 µM | 0.19 µM | 0.19 µM
8 | Nc1nc(N)c2nc(CNc3ccccc3Cl)ccc2n1 |  | 0.53 µM | 0.53 µM |  |  | 
9 | COc1ccc(NCc2ccc3nc(N)nc(N)c3n2)cc1OC |  | 0.9 µM | 0.9 µM |  |  | 
10 | COc1cccc(NCc2ccc3nc(N)nc(N)c3n2)c1 |  | 1.7 µM | 1.7 µM |  |  | 
11 | Nc1nc(N)c2nc(CSc3ccccc3)ccc2n1 |  | 2 µM | 2 µM |  |  | 
12 | COc1ccc(NCc2ccc3nc(N)nc(N)c3n2)cc1 |  | 0.85 µM | 0.849 µM |  |  | 
13 | CCN(Cc1cnc2nc(N)nc(N)c2c1C)c1cc(OC)c(OC)c(OC)c1 |  | 0.497 µM | 0.497 µM |  |  | 
14 | COc1cc(CN(C)c2cnc3nc(N)nc(N)c3c2)cc(OC)c1 | 0.031 µM |  |  | 0.031 µM |  | 
15 | COc1ccc(N(C)Cc2ccc3nc(N)nc(N)c3n2)cc1 |  | 0.25 µM | 0.25 µM |  |  | 
16 | Nc1nc(N)c2nc(CNc3ccc(Cl)cc3Cl)ccc2n1 |  | 0.73 µM | 0.73 µM |  |  | 
17 | Cc1c(C)c(-n2cccc2)c(C)c(C)c1NNCc1cnc2nc(N)nc(N)c2c1C | 0.075 µM | 0.62 µM | 0.62 µM | 0.075 µM | 0.17 µM | 0.17 µM
18 | COc1cc(N(C)CC2CCc3nc(N)nc(N)c3C2)cc(OC)c1OC (stereo unspecified) |  |  |  |  |  | 0.038 µM
19 | Nc1nc(N)c2nc(CSc3cccc4ccccc34)ccc2n1 |  | 0.47 µM | 0.47 µM |  | 0.252 µM | 
20 | Nc1nc(N)c2nc(CNc3ccc4ccccc4c3)ccc2n1 |  | 1.6 µM | 1.6 µM |  |  | 

Row | Structure (SMILES) | IC50 [1] | IC50 (Dihydrofolate reductase [2]) | IC50 (Dihydrofolate reductase [3]) | IC50 [4] | IC50 (Dihydrofolate reductase [5]) | IC50 (Dihydrofolate reductase [6])
21 | CN(Cc1ccc2nc(N)nc(N)c2n1)c1ccc(Cl)cc1Cl |  | 0.5 µM | 0.5 µM |  |  | 
22 | COc1ccccc1NCc1cnc2nc(N)nc(N)c2c1C | 0.0074 µM | 0.0689 µM | 0.0689 µM | 0.0074 µM | 0.0801 µM | 0.0801 µM
23 | COc1cc(CN(C)c2ccc3nc(N)nc(N)c3c2)cc(OC)c1 |  |  | 0.0233 µM |  |  | 
24 | CN(Cc1ccc2nc(N)nc(N)c2n1)c1cc(Cl)ccc1Cl |  | 0.15 µM | 0.15 µM |  |  | 
25 | COc1ccc(OC)c(NCc2ccc3nc(N)nc(N)c3n2)c1 |  | 4.4 µM | 4.4 µM |  |  | 
26 | COc1cc(-n2ccc3c4c(N)nc(N)nc4nc(=O)c-3c2)cc(OC)c1OC | 0.24 µM and 0.052 µM | 4.28 µM | 4.28 µM | 0.24 µM and 0.052 µM | 1.12 µM | 1.12 µM
27 | CN(Cc1ccc2nc(N)nc(N)c2n1)c1ccc2ccccc2c1 |  | 0.052 µM | 0.052 µM |  |  | 
28 | COc1ccccc1NCc1ccc2nc(N)nc(N)c2n1 |  | 2.7 µM | 2.7 µM |  |  | 
29 | COc1cc(N(C)Cc2cnc3nc(N)nc(N)c3c2C)cc(OC)c1OC |  |  |  |  | 0.00721 µM | 
30 | COc1cc(N(C)Cc2ccc3nc(N)nc(N)c3n2)cc(OC)c1OC | 0.044 µM | 0.12 µM | 0.12 µM | 0.044 µM | 0.052 µM | 0.052 µM
31 | Cc1c(CN(C)c2ccc(Cl)cc2)cnc2nc(N)nc(N)c12 | 0.0017 µM | 0.08 µM | 0.08 µM | 0.0017 µM | 0.17 µM | 0.17 µM
32 | Nc1nc(N)c2nc(CNc3ccc(Cl)c(Cl)c3)ccc2n1 |  | 0.41 µM | 0.41 µM |  |  | 
33 | COc1cc(OC)c(CNc2cnc3nc(N)nc(N)c3c2)c(OC)c1 |  |  |  |  |  | 1.2 µM
34 | COc1ccc(N(C)Cc2ccc3nc(N)nc(N)c3n2)c(OC)c1 |  | 0.16 µM | 0.16 µM |  |  | 
35 | COc1cc(CCC2CNc3nc(N)nc(N)c3C2)cc(OC)c1OC (stereo unspecified) | 1.1 µM | 7.7 µM | 7.71 µM | 1.1 µM | 2.1 µM | 2.1 µM
36 | CN(Cc1cccc2ccccc12)c1ccc2nc(N)nc(N)c2c1 |  | 0.017 µM | 0.017 µM | 0.021 µM | 0.017 µM | 0.017 µM
37 | CN(Cc1ccc2nc(N)nc(N)c2n1)c1cc(Cl)c(Cl)c(Cl)c1 |  | 0.25 µM | 0.25 µM |  |  | 
38 | CN(CC1CCc2nc(N)nc(N)c2C1)c1cccc2ccccc12 (stereo unspecified) |  |  |  |  | 0.16 µM | 
39 | CN(Cc1ccc2nc(N)nc(N)c2n1)c1ccc(Cl)c(Cl)c1 |  | 0.038 µM | 0.038 µM |  |  | 
40 | CN(Cc1ccc2nc(N)nc(N)c2n1)c1c(Cl)cccc1Cl |  | 0.17 µM | 0.17 µM |  |  | 

Row | Structure (SMILES) | IC50 [1] | IC50 (Dihydrofolate reductase [2]) | IC50 (Dihydrofolate reductase [3]) | IC50 [4] | IC50 (Dihydrofolate reductase [5]) | IC50 (Dihydrofolate reductase [6])
41 | Nc1nc(N)c2nc(CSc3ccc4ccccc4c3)ccc2n1 |  | 0.38 µM | 0.38 µM |  |  | 
42 | Nc1nc(N)c2nc(CNc3cccc(Cl)c3)ccc2n1 |  | 2 µM | 2 µM |  |  | 
43 | COc1cc(OC)c(CN(C)c2ccc3nc(N)nc(N)c3c2)c(OC)c1 | 0.95 µM | 116 µM | 116 µM | 0.95 µM | 22.7 µM | 22.7 µM
44 | Nc1nc(N)c2c(n1)CCC(CNc1cccc(Cl)c1)C2 (stereo unspecified) | 0.078 µM | 0.94 µM | 0.94 µM | 0.078 µM | 0.128 µM | 0.128 µM
45 | COc1cc(NCc2cnc3nc(N)nc(N)c3c2C)c(O)cc1-n1cccc1 | 0.033 µM | 0.35 µM | 0.35 µM | 0.033 µM | 0.23 µM | 0.23 µM
46 | Nc1nc(N)c2nc(CNc3cc(Cl)c(Cl)c(Cl)c3)ccc2n1 |  | 0.66 µM | 0.661 µM |  |  | 
47 | COc1ccc(CNc2cnc3nc(N)nc(N)c3c2)c(OC)c1OC | 0.35 µM | 14.1 µM | 14.1 µM | 0.35 µM | 3.3 µM | 3.3 µM
48 | COc1cccc(N(C)Cc2ccc3nc(N)nc(N)c3n2)c1 |  | 0.097 µM | 0.097 µM |  |  | 
49 | COc1cc(NCc2ccc3nc(N)nc(N)c3n2)cc(OC)c1OC |  | 2 µM | 2 µM |  |  | 
50 | COc1ccccc1N(C)Cc1ccc2nc(N)nc(N)c2n1 |  | 0.51 µM | 0.51 µM |  |  | 
51 | Nc1nc(N)c2nc(CNc3ccccc3)ccc2n1 |  | 1.7 µM | 1.7 µM |  |  | 
52 | CN(Cc1ccc2nc(N)nc(N)c2n1)c1ccccc1Cl |  | 0.21 µM | 0.21 µM |  |  | 
53 | Nc1nc(N)c2nc(CNc3cccc4ccccc34)ccc2n1 |  | 0.23 µM | 0.23 µM |  |  | 
54 | CN(Cc1ccc2nc(N)nc(N)c2n1)c1cccc2ccccc12 |  | 0.04 µM | 0.04 µM |  |  | 
55 | COc1cc(C(C)Nc2cnc3nc(N)nc(N)c3c2)cc(OC)c1OC (stereo unspecified) |  |  |  | 0.182 µM |  | 
56 | COc1ccc(OC)c(N(C)Cc2ccc3nc(N)nc(N)c3n2)c1 | 0.25 µM | 0.21 µM | 0.21 µM |  |  | 
57 | COc1ccc(NCc2ccc3nc(N)nc(N)c3n2)c(OC)c1 |  | 5.5 µM | 5.5 µM |  |  | 
58 | Nc1nc(N)c2nc(CNc3c(Cl)cccc3Cl)ccc2n1 |  | 1 µM | 1 µM |  |  | 
